Reference: patent publication US4183954A, “Benzoic acid derivatives and therapeutic composition containing the same” (Seuref A.G., priority 1977, dated 1980)

Experiments:
[1] = Acute toxicity (LD50), method of Lichtfield and Wilcoxon, mice; details: mouse, in vivo
[2] = system: experimental phlogistic reaction; test: Antiphlogistic activity, experimental phlogistic reaction; assay type: in vivo; details: rats, intraperitoneal or oral, 50 mg/kg to 300 mg/kg
Protocol: Intraperitoneal or oral administration of the test material at dosages within the range of from 50 mg/kg to 300 mg/kg inhibits the experimental phlogistic reaction induced in rats.

[3] = system: oedema of the rat's paw induced by carageenin; test: Antiphlogistic activity, oedema of the rat's paw induced by carageenin; assay type: in vivo
[4] = Chronic toxicity test, 3 months; assay type: in vivo, rats
Text: The chronic toxicity tests confirmed the low toxicity of the product.

[5] = system: oedema of the rat's paw induced by dextran; test: Antiphlogistic activity, oedema of the rat's paw induced by dextran; assay type: in vivo
[6] = system: hepatic steatosis and hypercholesterolemia induced by Handler's steatogenic diet; test: Anti-steatotic activity (Handler's steatogenic diet); assay type: in vivo; details: rats, 50 mg/kg daily
Protocol: Administration of the test material to rats at a daily dosage of 50 mg/kg inhibits the hepatic steatosis and the hypercholesterolemia induced by Handler's steatogenic diet.

[7] = system: hypercholesterolemia induced by Twin-Triton; test: Hypocholesterolemic activity (Twin-Triton-induced hypercholesterolemia); assay type: in vivo; details: rats, 200 mg/kg Twin-Triton i.p.
[8] = system: granulomatous reaction induced by the sub-cutaneous penetration of foreign bodies; test: Experimental granuloma test; assay type: in vivo
[9] = Acute toxicity (LD50), method of Lichtfield and Wilcoxon, rats; details: rat, in vivo
choleresis = test: Choleretic activity; assay type: in vivo; details: rats
[10] = system: anaphylactic reaction and death induced in guinea-pigs sensitized with horse serum; test: Antianaphylactic activity; assay type: in vivo
Protocol: Administration to […] of the test compound at a dosage of 60 mg/kg by the oral route or of 50 mg/kg by the intraperitoneal route inhibits the anaphylactic reaction and the death induced in guinea-pigs sensitized with horse serum.

CC(C)(Oc1cccc2ccccc12)C(=O)Nc1ccc(C(=O)O)cc1 [Compound 1, p-[α-(α-naphthoxy)isobutyramido]benzoic acid]
LD50 ([1]; ip, intraperitoneal): 395 mg/kg
LD50 ([1]; oral): 2500 mg/kg
inhibition of experimental phlogistic reaction [2]: inhibits
inhibition of paw oedema induced by carageenin [3]: inhibits
intolerance and toxicity ([4]; 50 mg/kg, 3 months): did not induce any intolerance and any toxicity
blood, glycemia, transaminases, urinary excretion and azotemia ([4]; 50 mg/kg, 3 months, treated rats, beginning and end of treatment): failed to disclose any significant change or pathological modification
chronic toxicity (overall) ([4]; chronic toxicity tests): low toxicity
inhibition of paw oedema induced by dextran [5]: inhibits
inhibition of hepatic steatosis [6]: inhibits
inhibition of hypercholesterolemia [6]: inhibits
inhibition of hypercholesterolemia ([7]; 100 mg/kg intraperitoneal): inhibits
inhibition of hypercholesterolemia ([7]; 300 mg/kg oral): inhibits
inhibition of granulomatous reaction [8]: inhibits
LD50 ([9]; ip, intraperitoneal): 425 mg/kg
LD50 ([9]; oral): 2200 mg/kg
elimination of biliary pigments or cholesterol (choleresis): increase concerns the elimination of either the biliary pigments or cholesterol
choleresis (choleresis; intraperitoneal, 20 mg/kg): significant increase of choleresis
choleresis (choleresis; oral, 100 mg/kg): significant increase of choleresis
increase of the choleresis compared with dehydrocholic acid (choleresis; versus dehydrocholic acid): more substantial and more extended than that induced by dehydrocholic acid
inhibition of anaphylactic reaction and death ([10]; 50 mg/kg intraperitoneal): inhibits
inhibition of anaphylactic reaction and death ([10]; 60 mg/kg oral): inhibits
